# Assay results as given in PubChem BioAssay (NCI).
#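 Exposure lasted 48 hours, with cells grown in 96-well plates and compounds tested at five concentrations. The concentration for full growth arrest is given as TGI.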
# Legend:
# Experiment in all cases: DTP human tumour cell line panel, 48 h
# M14 melanoma = system: M14 melanoma
# RPMI-8226 leukemia = system: RPMI-8226 leukemia
# RXF 393 renal = system: RXF 393 renal
# DLD-1 colon = system: DLD-1 colon
# SF-539 CNS = system: SF-539 CNS
# MALME-3M melanoma = system: MALME-3M melanoma
# HOP-92 NSCLC = system: HOP-92 NSCLC
# OVCAR-5 ovarian = system: OVCAR-5 ovarian
# EKVX NSCLC = system: EKVX NSCLC
# A549 NSCLC = system: A549 NSCLC
# HOP-62 NSCLC = system: HOP-62 NSCLC
# DMS 273 small cell lung = system: DMS 273 small cell lung
# SF-268 CNS = system: SF-268 CNS
# KM20L2 colon = system: KM20L2 colon
# UO-31 renal = system: UO-31 renal
# UACC-257 melanoma = system: UACC-257 melanoma
# NCI-H23 lung = system: NCI-H23 lung
# CCRF-CEM leukemia = system: CCRF-CEM leukemia
# SNB-19 CNS = system: SNB-19 CNS
# SF-295 CNS = system: SF-295 CNS
# KM12 colon = system: KM12 colon
# LXFL 529 NSCLC = system: LXFL 529 NSCLC
# OVCAR-4 ovarian = system: OVCAR-4 ovarian
# HL-60(TB) leukemia = system: HL-60(TB) leukemia
# LOX IMVI melanoma = system: LOX IMVI melanoma
# SK-MEL-5 melanoma = system: SK-MEL-5 melanoma
# IGROV1 ovarian = system: IGROV1 ovarian
# MOLT-4 leukemia = system: MOLT-4 leukemia
# SW-620 colon = system: SW-620 colon
# DMS 114 small cell lung = system: DMS 114 small cell lung
# HCC-2998 colon = system: HCC-2998 colon
# K-562 leukemia = system: K-562 leukemia
# SNB-75 CNS = system: SNB-75 CNS
# SK-OV-3 ovarian = system: SK-OV-3 ovarian
# OVCAR-8 ovarian = system: OVCAR-8 ovarian
# OVCAR-3 ovarian = system: OVCAR-3 ovarian
# HCT-116 colon = system: HCT-116 colon
# SK-MEL-2 melanoma = system: SK-MEL-2 melanoma
# HT29 colon = system: HT29 colon
# 786-0 renal = system: 786-0 renal
# SN12C renal = system: SN12C renal
# COLO 205 colon = system: COLO 205 colon
# U251 CNS = system: U251 CNS
# SK-MEL-28 melanoma = system: SK-MEL-28 melanoma
# SNB-78 CNS = system: SNB-78 CNS
# NCI-H460 lung = system: NCI-H460 lung
# UACC-62 melanoma = system: UACC-62 melanoma
# XF 498 CNS = system: XF 498 CNS
# CAKI-1 renal = system: CAKI-1 renal
# NCI-H522 lung = system: NCI-H522 lung
# ACHN renal = system: ACHN renal
# NCI-H226 lung = system: NCI-H226 lung
# HOP-18 NSCLC = system: HOP-18 NSCLC
# SR leukemia = system: SR leukemia
# TK-10 renal = system: TK-10 renal
# M19-MEL melanoma = system: M19-MEL melanoma
# RXF-631 renal = system: RXF-631 renal
# A498 renal = system: A498 renal
# HCT-15 colon = system: HCT-15 colon
compound,measurement,setting,value
CCOc1ccc(N=Nc2c(-c3ccccc3)nn(C(=O)CC(=O)Nc3ccccc3Cl)c2-c2ccccc2)cc1,TGI,M14 melanoma,> 100 µM
same,TGI,RPMI-8226 leukemia,> 100 µM
same,TGI,RXF 393 renal,> 100 µM
same,TGI,DLD-1 colon,> 100 µM
same,TGI,SF-539 CNS,> 100 µM
same,TGI,MALME-3M melanoma,> 100 µM
same,TGI,HOP-92 NSCLC,> 100 µM
same,TGI,OVCAR-5 ovarian,> 100 µM
same,TGI,EKVX NSCLC,> 100 µM
same,TGI,A549 NSCLC,> 100 µM
same,TGI,HOP-62 NSCLC,> 100 µM
same,TGI,DMS 273 small cell lung,> 100 µM
same,TGI,SF-268 CNS,> 100 µM
same,TGI,KM20L2 colon,> 100 µM
same,TGI,UO-31 renal,> 100 µM
same,TGI,UACC-257 melanoma,> 100 µM
same,TGI,NCI-H23 lung,> 100 µM
same,TGI,CCRF-CEM leukemia,> 100 µM
same,TGI,SNB-19 CNS,> 100 µM
same,TGI,SF-295 CNS,> 100 µM
same,TGI,KM12 colon,> 100 µM
same,TGI,LXFL 529 NSCLC,> 100 µM
same,TGI,OVCAR-4 ovarian,> 100 µM
same,TGI,HL-60(TB) leukemia,> 100 µM
same,TGI,LOX IMVI melanoma,> 100 µM
same,TGI,SK-MEL-5 melanoma,> 100 µM
same,TGI,IGROV1 ovarian,> 100 µM
same,TGI,MOLT-4 leukemia,> 100 µM
same,TGI,SW-620 colon,> 100 µM
same,TGI,DMS 114 small cell lung,> 100 µM
same,TGI,HCC-2998 colon,> 100 µM
same,TGI,K-562 leukemia,> 100 µM
same,TGI,SNB-75 CNS,90.6 µM
same,TGI,SK-OV-3 ovarian,> 100 µM
same,TGI,OVCAR-8 ovarian,> 100 µM
same,TGI,OVCAR-3 ovarian,> 100 µM
same,TGI,HCT-116 colon,> 100 µM
same,TGI,SK-MEL-2 melanoma,> 100 µM
same,TGI,HT29 colon,> 100 µM
same,TGI,786-0 renal,> 100 µM
same,TGI,SN12C renal,> 100 µM
same,TGI,COLO 205 colon,> 100 µM
same,TGI,U251 CNS,> 100 µM
same,TGI,SK-MEL-28 melanoma,> 100 µM
same,TGI,SNB-78 CNS,> 100 µM
same,TGI,NCI-H460 lung,> 100 µM
same,TGI,UACC-62 melanoma,> 100 µM
same,TGI,XF 498 CNS,> 100 µM
same,TGI,CAKI-1 renal,> 100 µM
same,TGI,NCI-H522 lung,> 100 µM
same,TGI,ACHN renal,> 100 µM
same,TGI,NCI-H226 lung,> 100 µM
same,TGI,HOP-18 NSCLC,> 100 µM
same,TGI,SR leukemia,> 100 µM
same,TGI,TK-10 renal,> 100 µM
same,TGI,M19-MEL melanoma,> 100 µM
CNC1CC(n2cc(C)c(=O)[nH]c2=O)OC1CO (centres undefined),TGI,M14 melanoma,> 100 µM
same,TGI,RPMI-8226 leukemia,> 100 µM
same,TGI,DLD-1 colon,> 100 µM
same,TGI,SF-539 CNS,> 100 µM
same,TGI,MALME-3M melanoma,> 100 µM
same,TGI,HOP-92 NSCLC,> 100 µM
same,TGI,HOP-62 NSCLC,> 100 µM
same,TGI,DMS 273 small cell lung,> 100 µM
same,TGI,SF-268 CNS,> 100 µM
same,TGI,UO-31 renal,> 100 µM
same,TGI,NCI-H23 lung,> 100 µM
same,TGI,CCRF-CEM leukemia,> 100 µM
same,TGI,LXFL 529 NSCLC,> 100 µM
same,TGI,OVCAR-4 ovarian,> 100 µM
same,TGI,HL-60(TB) leukemia,> 100 µM
same,TGI,IGROV1 ovarian,> 100 µM
same,TGI,MOLT-4 leukemia,> 100 µM
same,TGI,DMS 114 small cell lung,> 100 µM
same,TGI,HCC-2998 colon,> 100 µM
same,TGI,K-562 leukemia,> 100 µM
same,TGI,SNB-75 CNS,> 100 µM
same,TGI,SK-OV-3 ovarian,> 100 µM
same,TGI,HCT-116 colon,> 100 µM
same,TGI,SK-MEL-2 melanoma,> 100 µM
same,TGI,786-0 renal,> 100 µM
same,TGI,SN12C renal,> 100 µM
same,TGI,COLO 205 colon,> 100 µM
same,TGI,SK-MEL-28 melanoma,> 100 µM
same,TGI,RXF-631 renal,> 100 µM
same,TGI,UACC-62 melanoma,> 100 µM
same,TGI,XF 498 CNS,> 100 µM
same,TGI,CAKI-1 renal,> 100 µM
same,TGI,NCI-H522 lung,> 100 µM
same,TGI,A498 renal,> 100 µM
same,TGI,ACHN renal,> 100 µM
same,TGI,NCI-H226 lung,> 100 µM
same,TGI,SR leukemia,> 100 µM
same,TGI,M19-MEL melanoma,> 100 µM
Cc1ccc(/C=C2\CCCC(C(NO)c3ccc(C)cc3)C2=NO)cc1 (centres undefined),TGI,M14 melanoma,85.4 µM
same,TGI,RPMI-8226 leukemia,48.8 µM
same,TGI,RXF 393 renal,71.9 µM
same,TGI,DLD-1 colon,> 100 µM
same,TGI,SF-539 CNS,> 100 µM
same,TGI,MALME-3M melanoma,> 100 µM
same,TGI,EKVX NSCLC,> 100 µM
same,TGI,A549 NSCLC,> 100 µM
same,TGI,HOP-62 NSCLC,> 100 µM
same,TGI,DMS 273 small cell lung,> 100 µM
same,TGI,SF-268 CNS,66.6 µM
same,TGI,KM20L2 colon,42.5 µM
same,TGI,UO-31 renal,> 100 µM
same,TGI,UACC-257 melanoma,> 100 µM
same,TGI,NCI-H23 lung,73.2 µM
same,TGI,CCRF-CEM leukemia,49.8 µM
same,TGI,SNB-19 CNS,> 100 µM
same,TGI,KM12 colon,45.1 µM
same,TGI,LXFL 529 NSCLC,> 100 µM
same,TGI,OVCAR-4 ovarian,45.4 µM
same,TGI,HL-60(TB) leukemia,40.1 µM
same,TGI,SK-MEL-5 melanoma,50.2 µM
same,TGI,IGROV1 ovarian,> 100 µM
same,TGI,MOLT-4 leukemia,42.6 µM
same,TGI,SW-620 colon,> 100 µM
same,TGI,DMS 114 small cell lung,> 100 µM
same,TGI,HCC-2998 colon,62 µM
same,TGI,K-562 leukemia,> 100 µM
same,TGI,SNB-75 CNS,98.2 µM
same,TGI,SK-OV-3 ovarian,> 100 µM
same,TGI,OVCAR-8 ovarian,> 100 µM
same,TGI,OVCAR-3 ovarian,43.7 µM
same,TGI,HCT-116 colon,> 100 µM
same,TGI,SK-MEL-2 melanoma,> 100 µM
same,TGI,HT29 colon,37.9 µM
same,TGI,786-0 renal,> 100 µM
same,TGI,SN12C renal,38.8 µM
same,TGI,COLO 205 colon,38.5 µM
same,TGI,HCT-15 colon,> 100 µM
same,TGI,U251 CNS,> 100 µM
same,TGI,SK-MEL-28 melanoma,67.7 µM
same,TGI,RXF-631 renal,93.5 µM
same,TGI,SNB-78 CNS,> 100 µM
same,TGI,NCI-H460 lung,62.6 µM
same,TGI,UACC-62 melanoma,> 100 µM
same,TGI,XF 498 CNS,> 100 µM
same,TGI,CAKI-1 renal,> 100 µM
same,TGI,NCI-H522 lung,76.1 µM
same,TGI,A498 renal,> 100 µM
same,TGI,ACHN renal,> 100 µM
same,TGI,HOP-18 NSCLC,> 100 µM
same,TGI,TK-10 renal,> 100 µM
same,TGI,M19-MEL melanoma,> 100 µM
CCOC(=O)C(=O)Nc1nc2ccc(OC)cc2s1,TGI,M14 melanoma,> 100 µM
same,TGI,RPMI-8226 leukemia,> 100 µM
same,TGI,DLD-1 colon,> 100 µM
same,TGI,SF-539 CNS,> 100 µM
same,TGI,MALME-3M melanoma,> 100 µM
same,TGI,HOP-92 NSCLC,> 100 µM
same,TGI,OVCAR-5 ovarian,> 100 µM
same,TGI,EKVX NSCLC,> 100 µM
same,TGI,A549 NSCLC,> 100 µM
same,TGI,HOP-62 NSCLC,> 100 µM
same,TGI,DMS 273 small cell lung,> 100 µM
same,TGI,SF-268 CNS,> 100 µM
same,TGI,KM20L2 colon,> 100 µM
same,TGI,UO-31 renal,> 100 µM
same,TGI,UACC-257 melanoma,> 100 µM
same,TGI,NCI-H23 lung,> 100 µM
same,TGI,CCRF-CEM leukemia,> 100 µM
same,TGI,SNB-19 CNS,> 100 µM
same,TGI,SF-295 CNS,> 100 µM
same,TGI,KM12 colon,> 100 µM
same,TGI,LXFL 529 NSCLC,> 100 µM
same,TGI,OVCAR-4 ovarian,> 100 µM
same,TGI,HL-60(TB) leukemia,> 100 µM
same,TGI,LOX IMVI melanoma,> 100 µM
same,TGI,SK-MEL-5 melanoma,> 100 µM
same,TGI,IGROV1 ovarian,> 100 µM
same,TGI,MOLT-4 leukemia,> 100 µM
same,TGI,SW-620 colon,> 100 µM
same,TGI,HCC-2998 colon,> 100 µM
same,TGI,K-562 leukemia,> 100 µM
same,TGI,SNB-75 CNS,> 100 µM
same,TGI,SK-OV-3 ovarian,> 100 µM
same,TGI,OVCAR-8 ovarian,> 100 µM
same,TGI,OVCAR-3 ovarian,> 100 µM
same,TGI,SK-MEL-2 melanoma,> 100 µM
same,TGI,HT29 colon,> 100 µM
same,TGI,786-0 renal,> 100 µM
same,TGI,SN12C renal,> 100 µM
same,TGI,COLO 205 colon,> 100 µM
same,TGI,HCT-15 colon,> 100 µM
same,TGI,U251 CNS,> 100 µM
same,TGI,SK-MEL-28 melanoma,> 100 µM
same,TGI,SNB-78 CNS,> 100 µM
same,TGI,NCI-H460 lung,> 100 µM
same,TGI,UACC-62 melanoma,> 100 µM
same,TGI,CAKI-1 renal,> 100 µM
same,TGI,A498 renal,> 100 µM
same,TGI,ACHN renal,> 100 µM
same,TGI,NCI-H226 lung,> 100 µM
same,TGI,HOP-18 NSCLC,> 100 µM
same,TGI,TK-10 renal,> 100 µM
same,TGI,M19-MEL melanoma,> 100 µM
